In the supplement of paper PMC10307832:

Experiments:
Assay in all cases: relative viability (nuclei count vs DMSO), 5 days (fraction); higher = more cells survive
Pazopanib + Linsitinib = compound: Cc1ccc(Nc2nccc(N(C)c3ccc4c(C)n(C)nc4c3)n2)cc1S(N)(=O)=O [Pazopanib] + C[C@]1(O)C[C@@H](c2nc(-c3ccc4ccc(-c5ccccc5)nc4c3)c3c(N)nccn32)C1 [Linsitinib] (partner 1 µM)
Procedure, shortened: (§1)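 Lung cancer cell lines were seeded in 1536-well plates and dosed by pin tool the next day, with either a single drug or a fixed anchor-drug dose combined with five library-drug doses (not always all listed) spaced in √10 steps. Five days later, one step fixed the cells and stained their nuclei (final 0.05% Triton X-100, 1% formaldehyde, 1 ug/ml Hoechst), and nuclei were counted on 4× images. Relative viability is the nuclei count in treated wells divided by the count in vehicle wells, and each value is the median of duplicate plates.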

Pazopanib + Luminespib = compound: Cc1ccc(Nc2nccc(N(C)c3ccc4c(C)n(C)nc4c3)n2)cc1S(N)(=O)=O [Pazopanib] + CCNC(=O)c1noc(-c2cc(C(C)C)c(O)cc2O)c1-c1ccc(CN2CCOCC2)cc1 [Luminespib] (partner 0.01 µM)
Procedure, shortened: as §1

Ponatinib + Vorinostat = compound: Cc1ccc(C(=O)Nc2ccc(CN3CCN(C)CC3)c(C(F)(F)F)c2)cc1C#Cc1cnc2cccnn12 [Ponatinib] + O=C(CCCCCCC(=O)Nc1ccccc1)NO [Vorinostat] (partner 1 µM)
Procedure, shortened: as §1

Pazopanib + Olaparib = compound: Cc1ccc(Nc2nccc(N(C)c3ccc4c(C)n(C)nc4c3)n2)cc1S(N)(=O)=O [Pazopanib] + O=C(c1cc(Cc2n[nH]c(=O)c3ccccc23)ccc1F)N1CCN(C(=O)C2CC2)CC1 [Olaparib] (partner 8 µM)
Procedure, shortened: as §1

Cell Line	relative viability (Pazopanib + Linsitinib; first compound 0.01 µM)	relative viability (Pazopanib + Linsitinib; first compound 0.03162 µM)	relative viability (Pazopanib + Linsitinib; first compound 0.1 µM)	relative viability (Pazopanib + Linsitinib; first compound 0.3162 µM)	relative viability (Pazopanib + Linsitinib; first compound 1 µM)	relative viability (Pazopanib + Luminespib; first compound 0.01 µM)	relative viability (Pazopanib + Luminespib; first compound 0.03162 µM)	relative viability (Pazopanib + Luminespib; first compound 0.1 µM)	relative viability (Pazopanib + Luminespib; first compound 0.3162 µM)	relative viability (Pazopanib + Luminespib; first compound 1 µM)	relative viability (Ponatinib + Vorinostat; first compound 0.006325 µM)	relative viability (Ponatinib + Vorinostat; first compound 0.06325 µM)	relative viability (Ponatinib + Vorinostat; first compound 0.2 µM)	relative viability (Pazopanib + Olaparib; first compound 0.01 µM)	relative viability (Pazopanib + Olaparib; first compound 0.03162 µM)	relative viability (Pazopanib + Olaparib; first compound 0.1 µM)	relative viability (Pazopanib + Olaparib; first compound 0.3162 µM)	relative viability (Pazopanib + Olaparib; first compound 1 µM)	relative viability (Ponatinib + Vorinostat; first compound 0.002 µM)
HARA	0.916	0.862	1	1.03	1.03	0.548	0.704	1.09	0.76	0.839	0.491	0.548	0.46	0.938	0.778	0.958	1.26	0.795	
NCI-H2087	1.02	0.967	1.13	0.841	0.895	0.162	0.174	0.171	0.165	0.159	0.549	0.366	0.662	0.72	0.7	0.745	0.549	0.568	0.635
NCI-H1437	1.04	1.07	0.973	1.04	1.05	1.25	1.16	1.13	1.11	1.07	0.858	0.938	0.901	0.644	0.645	0.649	0.653	0.551	0.859
NCI-H661	0.44	0.637	0.581	0.541	0.672	0.926	0.927	0.958	1.02	0.953	0.775	0.831	0.819	0.781	0.782	0.792	0.691	0.71	0.735
COR-L23	1.02	1.01	0.988	1.15	0.975	0.644	0.791	0.72	0.654	0.785	0.403	0.52	0.462	0.35	0.332	0.366	0.299	0.34	0.31
COR-L 105	0.909	0.964	1.1	0.822	1.21	1.06	0.539	0.765	0.909	0.787	0.953	0.899	0.837	0.699	0.649	0.667	0.584	0.745	0.802
LK-2	0.486	0.564	0.475	0.517	0.524		0.208	0.176	0.168	0.219	0.284	0.341	0.345	0.575	0.673	0.735	0.807	0.539	0.261
201T	0.942	1.04	1.06	1.06	0.989	0.996	1.1	1.07	1.06	1.08	0.992	1.05	0.939	0.863	0.865	0.85	0.825	0.822	0.965
HCC-44	0.575	0.673	0.678	0.582	0.722	1.11	1.07	1.07	1.04	1.12	1.07	1.07	1.07	0.991	0.995	1.02	0.995	1	1.1
NCI-H647	1.17	1.4	1.17	1.23	1.11	0.244	0.124	0.199	0.217	0.14	0.588	0.686	0.513	0.717	0.714	0.803	0.486	0.474	0.381
H3255	0.888	0.954	1.01	0.814	1.03	0.854	0.883	0.869	0.8	0.982	0.85	0.75	0.782	0.583	0.541	0.627	0.564	0.564	0.613
NCI-H650	0.738	1.1	0.808	0.92	0.839	0.682	0.773	0.669	0.813	0.735	0.441	0.444	0.447	0.404	0.411	0.394	0.391	0.37	0.3
NCI-H2023	0.699	0.637	0.863	0.623	0.682	0.781	0.77	0.652	0.613	0.883	0.634	0.851	0.593	0.441	0.487	0.516	0.466	0.45	0.661
NCI-H23	0.505	0.629	0.556	0.567	0.842	0.227	0.209	0.219	0.226	0.231	0.588	0.607	0.634	0.315	0.343	0.297	0.321	0.36	0.504
NCI-H1944	1.08	1.28	1.15	1.24	1.32		0.784	0.771	0.86	0.857	0.637	0.693	0.679	0.425	0.353	0.424	0.418	0.475	0.519
NCI-H596	0.833	1.12	1.24	1.06	1.03		1.05	1.02	0.908	1.19	0.7	0.556	0.522	0.674	0.661	0.676	0.749	0.629	0.659
NCI-H520		1.05	1	0.946	1.05	0.234	0.235	0.227	0.218	0.214	0.59	0.663	0.499	0.38	0.277	0.414	0.348	0.285	0.686

Cell Line	relative viability (Pazopanib + Linsitinib; first compound 0.01 µM)	relative viability (Pazopanib + Linsitinib; first compound 0.03162 µM)	relative viability (Pazopanib + Linsitinib; first compound 0.1 µM)	relative viability (Pazopanib + Linsitinib; first compound 0.3162 µM)	relative viability (Pazopanib + Linsitinib; first compound 1 µM)	relative viability (Pazopanib + Luminespib; first compound 0.01 µM)	relative viability (Pazopanib + Luminespib; first compound 0.03162 µM)	relative viability (Pazopanib + Luminespib; first compound 0.1 µM)	relative viability (Pazopanib + Luminespib; first compound 0.3162 µM)	relative viability (Pazopanib + Luminespib; first compound 1 µM)	relative viability (Ponatinib + Vorinostat; first compound 0.006325 µM)	relative viability (Ponatinib + Vorinostat; first compound 0.06325 µM)	relative viability (Ponatinib + Vorinostat; first compound 0.2 µM)	relative viability (Pazopanib + Olaparib; first compound 0.01 µM)	relative viability (Pazopanib + Olaparib; first compound 0.03162 µM)	relative viability (Pazopanib + Olaparib; first compound 0.1 µM)	relative viability (Pazopanib + Olaparib; first compound 0.3162 µM)	relative viability (Pazopanib + Olaparib; first compound 1 µM)	relative viability (Ponatinib + Vorinostat; first compound 0.002 µM)
EKVX	0.95	1.04	0.869	1.03	1.04	0.987	0.763	0.728	0.873	0.857	0.822	0.927	0.826	0.766	1.05	0.863	0.867	0.911	0.762
SK-MES-1	0.983	1.01	1.12	1.15	1.02	0.846	0.79	0.746	0.913	0.75	1.08	1.36	1.08	0.659	0.684	0.76	0.75	0.685	0.999
EPLC-272H	0.98	1.13	1.25	1.26	1.17		0.281	0.366	0.344	0.52	0.525	0.579	0.545	0.87	0.792	1.06	0.944	0.845	0.461
NCI-H1793		0.871	0.835	0.83	0.905		0.235	0.198	0.186	0.235	0.701	0.846	0.686		0.8	1.03	0.906	1.05	0.678
NCI-H2126	0.563	0.734	0.749	0.677	0.774	0.93	0.928	0.903	0.846	0.946	0.777	0.988	0.789	0.825	0.908	0.988	0.946	0.887	0.784
LXF-289	0.973	0.957	0.921	0.93	0.98	0.74	0.713	0.69	0.67	0.729	0.746	0.732	0.793	1.05	1.06	1.1	1.05	1.05	0.646
NCI-H2009	1.22	1.22	1.21	1.15	1.06	1.04	0.989	0.988	0.955	0.854	0.783	0.694	0.585	0.746	0.699	0.686	0.677	0.456	0.666
NCI-H3122	0.969	1.06	0.998	1.12	0.945	0.0969	0.0909	0.106	0.0886	0.0721	1.07	0.994	1.05	0.7	0.572	0.607	0.636	0.599	0.936
NCI-H1755	0.934	0.995	1.01	0.967	1.01	0.422	0.42	0.261	0.448	0.527	0.777	0.72	0.82	0.798	0.837	0.866	0.882	0.944	0.685
LOU-NH91	0.89	0.98	0.984	1.04	0.935	0.335	0.336	0.331	0.324	0.275	0.988	1.01	0.873	0.925	0.888	0.926	0.96	0.931	0.889
NCI-H322M	0.772	1.06	0.899	1.05	0.972	0.956	0.954	0.871	0.945	0.844	0.823	0.833	0.741	0.885	0.817	0.881	0.71	0.71	0.882
HCC-827	1.01	0.935	0.938	0.933	0.849	0.369	0.778	0.747	0.603	0.46	0.78	0.821	0.801	0.675	0.644	0.691	0.706	0.673	0.736
SW 1573	0.716	0.798	0.817	0.935	1.01	0.24	0.17	0.266	0.205	0.236	0.737	0.835	0.575	0.471	0.511	0.52	0.531	0.517	0.564
NCI-H1975	0.85	0.943	0.992	0.929	0.985	0.157	0.326	0.275	0.272	0.331	0.71	0.688	0.579	0.76	0.829	0.775	0.785	0.756	0.669
NCI-H1651	1.11	0.901	0.886	0.982	1.08	0.853	0.869	0.785	0.741	0.878	0.579	0.602	0.601	0.18	0.192	0.176	0.202	0.188	0.507
NCI-H460	0.823	1.13	0.838	0.98	0.827	0.0281	0.0326	0.033	0.0276	0.0432	0.657	0.74	0.664	0.51	0.413	0.572	0.406	0.409	0.665
LCLC-103H	0.846	1.22	1.06	1.04	1.14	0.861	1.02	1.03	0.937	1.05	0.821	0.848	0.765	0.723	0.699	0.769	0.79	0.799	0.701
